Test results: patent US8076487B2, “Pyridone derivative and herbicide” (Kumiai Chemical Industry Co., Ltd., priority 2006, dated 2011)

Legend:
Format in all cases: in vivo
[1] = tested on: barnyardgrass (Echinochloa crus-galli (L.) P. Beauv. var. crus-galli); assay: Test Example 3: herbicidal effect by application to upland field (foliage treatment); conditions: foliage treatment, 1,000 g active ingredient per 1 hectare, 14th day after application, greenhouse
Method in brief: (§1)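 Greenhouse-grown plants, two weeks old in field soil, were treated by spraying their foliage with a water dilution of wettable powder. Rate: 1,000 g active ingredient in a 1,000 L/ha equivalent volume. Assessment followed at 14 days.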

[2] = tested on: slender amaranth (Amaranthus viridis L.); assay: as above; conditions: foliage treatment, 1,000 g active ingredient per 1 hectare, 14th day after application, greenhouse
Method in brief: as §1

[3] = tested on: green foxtail (Setaria viridis (L.) P. Beauv.); assay: as above; conditions: foliage treatment, 1,000 g active ingredient per 1 hectare, 14th day after application, greenhouse
Method in brief: as §1

[4] = tested on: velvetleaf (Abutilon theophrasti medicus); assay: as above; conditions: foliage treatment, 1,000 g active ingredient per 1 hectare, 14th day after application, greenhouse
Method in brief: as §1

[5] = tested on: barnyardgrass (Echinochloa crus-galli (L.) P. Beauv. var. crus-galli); assay: Test Example 2: herbicidal effect by soil application to upland field; conditions: soil surface spray, upland field soil, 1,000 g active ingredient per hectare, 21st day after application
Method in brief: (§2)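 A standard visual rating of herbicidal effect, made 21 days after treatment, gives the value. Treatment consisted of a uniform spray of water-diluted wettable powder on the soil covering newly sown seeds, equivalent to 1,000 g active ingredient and 1,000 liters per hectare.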

[6] = tested on: slender amaranth (Amaranthus viridis L.); assay: as above; conditions: soil surface spray, upland field soil, 1,000 g active ingredient per hectare, 21st day after application
Method in brief: as §2

[7] = tested on: green foxtail (Setaria viridis (L.) P. Beauv.); assay: as above; conditions: soil surface spray, upland field soil, 1,000 g active ingredient per hectare, 21st day after application
Method in brief: as §2

[8] = tested on: velvetleaf (Abutilon theophrasti medicus); assay: as above; conditions: soil surface spray, upland field soil, 1,000 g active ingredient per hectare, 21st day after application
Method in brief: as §2

[9] = tested on: Japanese bulrush (Scirpus juncoides Roxb.); assay: Test Example 1: herbicidal effect by soil application to paddy field; conditions: for herbicidal effect (index), Scirpus juncoides Roxb.: soil application to paddy field, rated by standard of Table 34; for herbicidal effect, Scirpus juncoides Roxb.: paddy field soil application, active ingredient 1,000 g per 1 hectare, wettable powder added dropwise to water surface the day after sowing, examined on the 21st day after application
Method in brief: (§3)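 Plants were sown in flooded (3 cm) paddy soil and evaluated for herbicidal effect 21 days after soil application in a greenhouse.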

[10] = tested on: early watergrass (Echinochloa oryzicola Vasing); assay: as above; conditions: for herbicidal effect (index), Echinochloa oryzicola Vasing: soil application to paddy field, rated by standard of Table 34; for herbicidal effect, Echinochloa oryzicola Vasing: paddy field soil application, active ingredient 1,000 g per 1 hectare, wettable powder added dropwise to water surface the day after sowing, examined on the 21st day after application
Method in brief: as §3

[11] = tested on: heartshape false pickerelweed (Monochoria vaginalis (Burm.f.) C.Presl); assay: as above; conditions: for herbicidal effect (index), Monochoria vaginalis (Burm.f.) C.Presl: soil application to paddy field, rated by standard of Table 34; for herbicidal effect, Monochoria vaginalis (Burm. f.) C. Presl: paddy field soil application, active ingredient 1,000 g per 1 hectare, wettable powder added dropwise to water surface the day after sowing, examined on the 21st day after application
Method in brief: as §3

Compound	herbicidal effect, Barnyardgrass [1]	herbicidal effect, Slender Amaranth [2]	herbicidal effect, Green Foxtail [3]	herbicidal effect, Velvetleaf [4]	herbicidal effect (index), Barnyardgrass [5]	herbicidal effect (index), Slender Amaranth [6]	herbicidal effect (index), Green Foxtail [7]	herbicidal effect (index), Velvetleaf [8]	herbicidal effect (index), Scirpus juncoides Roxb. [9]	herbicidal effect (index), Echinochloa oryzicola Vasing [10]	herbicidal effect (index), Monochoria vaginalis (Burm.f.) C.Presl [11]	herbicidal effect, Scirpus juncoides Roxb. [9]	herbicidal effect, Echinochloa oryzicola Vasing [10]	herbicidal effect, Monochoria vaginalis (Burm. f.) C. Presl [11]
O=C1CCCC(O)=C1C(=O)c1cnccn1 [Comparative Compound 1, reference compound]	0 (0 to less than 10% of herbicidal effect and crop phytotoxicity)	1 (10 to less than 30% of herbicidal effect and crop phytotoxicity)	0 (0 to less than 10% of herbicidal effect and crop phytotoxicity)	2 (30 to less than 50% of herbicidal effect and crop phytotoxicity)	1 (10 to less than 30% of herbicidal effect and crop phytotoxicity)	0 (0 to less than 10% of herbicidal effect and crop phytotoxicity)	1 (10 to less than 30% of herbicidal effect and crop phytotoxicity)	1 (10 to less than 30% of herbicidal effect and crop phytotoxicity)	0 (0 to less than 10% of herbicidal effect and crop phytotoxicity)	1 (10 to less than 30% of herbicidal effect and crop phytotoxicity)	0 (0 to less than 10% of herbicidal effect and crop phytotoxicity)			
O=C1CCCC(O)=C1C(=O)c1ccc2ccccc2n1 [Comparative Compound 2, reference compound]	0 (0 to less than 10% of herbicidal effect and crop phytotoxicity)	1 (10 to less than 30% of herbicidal effect and crop phytotoxicity)	0 (0 to less than 10% of herbicidal effect and crop phytotoxicity)	5 (90% or more of herbicidal effect and crop phytotoxicity)	3 (50 to less than 70% of herbicidal effect and crop phytotoxicity)	2 (30 to less than 50% of herbicidal effect and crop phytotoxicity)	0 (0 to less than 10% of herbicidal effect and crop phytotoxicity)	2 (30 to less than 50% of herbicidal effect and crop phytotoxicity)	0 (0 to less than 10% of herbicidal effect and crop phytotoxicity)	0 (0 to less than 10% of herbicidal effect and crop phytotoxicity)	0 (0 to less than 10% of herbicidal effect and crop phytotoxicity)			
C=CCn1c(C(F)(F)F)ccc(C(=O)C2=C(O)C(C)(C)C(=O)C(C)(C)C2=O)c1=O [II-42]	5 (90% or more of herbicidal effect and crop phytotoxicity)	5 (90% or more of herbicidal effect and crop phytotoxicity)	3 (50 to less than 70% of herbicidal effect and crop phytotoxicity)	5 (90% or more of herbicidal effect and crop phytotoxicity)	5 (90% or more of herbicidal effect and crop phytotoxicity)	5 (90% or more of herbicidal effect and crop phytotoxicity)	3 (50 to less than 70% of herbicidal effect and crop phytotoxicity)	5 (90% or more of herbicidal effect and crop phytotoxicity)						
CS(=O)(=O)CCn1c(C(F)(F)F)ccc(C(=O)C2=C(O)C3CCC(C3)C2=O)c1=O (centres unmarked) [III-30]	5 (90% or more of herbicidal effect and crop phytotoxicity)	5 (90% or more of herbicidal effect and crop phytotoxicity)	5 (90% or more of herbicidal effect and crop phytotoxicity)	5 (90% or more of herbicidal effect and crop phytotoxicity)	5 (90% or more of herbicidal effect and crop phytotoxicity)	5 (90% or more of herbicidal effect and crop phytotoxicity)	5 (90% or more of herbicidal effect and crop phytotoxicity)	5 (90% or more of herbicidal effect and crop phytotoxicity)						
C#CCOc1c(C(=O)c2ccc(C(F)(F)F)n(C)c2=O)cnn1C [IV-189]					5 (90% or more of herbicidal effect and crop phytotoxicity)	5 (90% or more of herbicidal effect and crop phytotoxicity)	4 (70 to less than 90% of herbicidal effect and crop phytotoxicity)	4 (70 to less than 90% of herbicidal effect and crop phytotoxicity)				5 (90% or more of herbicidal effect and crop phytotoxicity)	5 (90% or more of herbicidal effect and crop phytotoxicity)	5 (90% or more of herbicidal effect and crop phytotoxicity)
CCCS(=O)(=O)Oc1c(C(=O)c2ccc(C(F)(F)F)n(CC3CCCO3)c2=O)cnn1CC (centres unmarked) [IV-207]					5 (90% or more of herbicidal effect and crop phytotoxicity)	5 (90% or more of herbicidal effect and crop phytotoxicity)	5 (90% or more of herbicidal effect and crop phytotoxicity)	5 (90% or more of herbicidal effect and crop phytotoxicity)				5 (90% or more of herbicidal effect and crop phytotoxicity)	5 (90% or more of herbicidal effect and crop phytotoxicity)	5 (90% or more of herbicidal effect and crop phytotoxicity)
CCCS(=O)(=O)Oc1c(C(=O)c2ccc(C(F)(F)F)n(-c3ccccc3)c2=O)c(C)nn1C [IV-237]					4 (70 to less than 90% of herbicidal effect and crop phytotoxicity)	5 (90% or more of herbicidal effect and crop phytotoxicity)	4 (70 to less than 90% of herbicidal effect and crop phytotoxicity)	4 (70 to less than 90% of herbicidal effect and crop phytotoxicity)				5 (90% or more of herbicidal effect and crop phytotoxicity)	5 (90% or more of herbicidal effect and crop phytotoxicity)	5 (90% or more of herbicidal effect and crop phytotoxicity)
CCCn1c(C(F)(F)F)c(C)cc(C(=O)c2cnn(C)c2O)c1=O [IV-241]					4 (70 to less than 90% of herbicidal effect and crop phytotoxicity)	5 (90% or more of herbicidal effect and crop phytotoxicity)	3 (50 to less than 70% of herbicidal effect and crop phytotoxicity)	5 (90% or more of herbicidal effect and crop phytotoxicity)				5 (90% or more of herbicidal effect and crop phytotoxicity)	5 (90% or more of herbicidal effect and crop phytotoxicity)	5 (90% or more of herbicidal effect and crop phytotoxicity)
CCCn1c(C(F)(F)F)ccc(C(=O)C(C#N)=C(O)C2CC2)c1=O [V-21]					5 (90% or more of herbicidal effect and crop phytotoxicity)	5 (90% or more of herbicidal effect and crop phytotoxicity)	5 (90% or more of herbicidal effect and crop phytotoxicity)	5 (90% or more of herbicidal effect and crop phytotoxicity)	5 (90% or more of herbicidal effect and crop phytotoxicity)	5 (90% or more of herbicidal effect and crop phytotoxicity)	5 (90% or more of herbicidal effect and crop phytotoxicity)			
N#CC(C(=O)c1ccc(C(F)(F)F)n(-c2ccccc2)c1=O)=C(O)C1CC1 [V-23]					5 (90% or more of herbicidal effect and crop phytotoxicity)	5 (90% or more of herbicidal effect and crop phytotoxicity)	5 (90% or more of herbicidal effect and crop phytotoxicity)	5 (90% or more of herbicidal effect and crop phytotoxicity)	5 (90% or more of herbicidal effect and crop phytotoxicity)	5 (90% or more of herbicidal effect and crop phytotoxicity)	5 (90% or more of herbicidal effect and crop phytotoxicity)			
